# Test results as given in the C3SDB collision cross section collection.
# “And” between values parts separate entries of the source, which are not always exact repeats. Equal values may be shown once.
# Tests used:
# [1] = instrument: DT, single field, calibrated with ESI Low Concentration Tuning Mix (Agilent)
# [2] = instrument: TW, calibrated with polyalanine and drug standards
Structure (SMILES),collision cross section (N2) ([2]; [M+H]+),also measured
NC1(C(=O)[O-])CC1 [1-AMINOCYCLOPROPANECARBOXYLATE],–,collision cross section (N2) ([1]; [M-H]-): 135.1 Å²
Cn1cnc(C[C@H](N)C(=O)O)c1 [1-METHYL-L-HISTIDINE],–,collision cross section (N2) ([1]; [M+H]+): 133.4 Å²; collision cross section (N2) ([1]; [M+Na]+): 138.4 Å²
"NCC(N)C(=O)O (stereo unspecified) [2,3-DIAMINOPROPIONATE]",–,collision cross section (N2) ([1]; [M+H]+): 138.1 Å²; collision cross section (N2) ([1]; [M-H]-): 118.2 Å²
"O=C(O)c1cccc(O)c1[O-] [2,3-DIHYDROXYBENZOATE]",–,collision cross section (N2) ([1]; [M-H]-): 120.6 Å²
"O=c1[nH]c(=O)c2nccnc2[nH]1 [2,4-DIHYDROXYPTERIDINE]",–,collision cross section (N2) ([1]; [M+H]+): 132.4 Å²; collision cross section (N2) ([1]; [M+Na]+): 143.8 Å²; collision cross section (N2) ([1]; [M-H]-): 125.3 Å²
"O=C(O)c1cc(O)ccc1[O-] [2,5-DIHYDROXYBENZOATE]",–,collision cross section (N2) ([1]; [M-H]-): 124.6 Å²
O=C(O)Cc1ccccc1O [2-HYDROXYPHENYLACETATE],–,collision cross section (N2) ([1]; [M-H]-): 130.1 Å²
O=C(O)c1ccc2ccccc2n1 [2-QUINOLINECARBOXYLATE],–,collision cross section (N2) ([1]; [M+H]+): 132 Å²
"O=C(O)Cc1ccc(O)c(O)c1 [3,4-DIHYDROXYPHENYLACETATE]",–,collision cross section (N2) ([1]; [M+Na-2H]-): 139.9 Å²
"OCC(O)c1ccc(O)c(O)c1 (stereo unspecified) [3,4-DIHYDROXYPHENYLGLYCOL]",–,collision cross section (N2) ([1]; [M-H2O-H]-): 127.5 Å²
C[C@@H]1O[C@@H](Oc2c(-c3ccc(O)c(O)c3)oc3cc(O)cc(O)c3c2=O)[C@H](O)[C@H](O)[C@H]1O [QUERCITRIN],–,collision cross section (N2) ([2]; [M+Na]+): 205.9 Å²
C=C[C@H]1CN2CC[C@H]1C[C@@H]2[C@@H](OC(=O)OCC)c1ccnc2ccc(OC)cc12 [QUININE ETHYL CARBONATE],196.7 Å²,–
O=C(NC(Cc1cc(=O)[nH]c2ccccc12)C(=O)O)c1ccc(Cl)cc1 (stereo unspecified) [REBAMIPIDE],185 Å²,–
CNc1ccccc1C(=O)N1CCc2c([nH]c3ccccc23)C1=O [RHETSININE],–,collision cross section (N2) ([2]; [M+H-H2O]+): 166.5 Å²
O=C1C=CC(=C(c2ccc(O)cc2)c2ccc(O)cc2)C=C1 [ROSOLIC ACID],169.1 Å²,–
C=C[C@H](C1=CC(=O)C=CC1=O)c1ccccc1 [S-DALBERGIONE],143.6 Å²,–
OCc1ccccc1O[C@@H]1O[C@H](CO)[C@@H](O)[C@H](O)[C@H]1O [SALICIN],–,collision cross section (N2) ([2]; [M+Na]+): 163.2 Å²
COc1cc2c(cc1O)CCNC2C (stereo unspecified) [SALSOLINE],145.8 Å²,–
O=C1C=C2C=C[C@@H]3C[C@@]2(O1)[C@H]1CCCCN31 [SECURININE],146.4 Å²,–
CO[C@H]1C[C@H](O[C@@H]2/C(C)=C/C[C@@H]3C[C@@H](C[C@]4(CC[C@H](C)[C@@H](C5CCCCC5)O4)O3)OC(=O)[C@@H]3C=C(C)/C(=N/O)[C@H]4OC/C(=C\C=C\[C@@H]2C)[C@]43O)O[C@@H](C)[C@@H]1O [SELAMECTIN],293.2 Å²,–
COc1cc([C@H]2Oc3cc([C@H]4Oc5cc(O)cc(O)c5C(=O)[C@@H]4O)ccc3O[C@@H]2CO)ccc1O [SILIBININ],213.6 Å²,–
COc1ccc(-c2cc(=O)c3c(OC)c(OC)c(OC)cc3o2)cc1OC [SINENSETIN],186.4 Å²,–
CO[C@H]1C[C@@H]2CC[C@@H](C)[C@@](O)(O2)C(=O)C(=O)N2CCCC[C@H]2C(=O)O[C@H]([C@H](C)C[C@@H]2CC[C@@H](O)[C@H](OC)C2)CC(=O)[C@H](C)/C=C(\C)[C@@H](O)[C@@H](OC)C(=O)[C@H](C)C[C@H](C)/C=C/C=C/C=C/1C [SIROLIMUS],–,collision cross section (N2) ([2]; [M+Na]+): 311.6 Å²

Structure (SMILES),collision cross section (N2) ([2]; [M+H]+),also measured
C[C@@H]1CC[C@@]2(OC1)O[C@H]1C[C@H]3[C@@H]4CC[C@@H]5C[C@@H](O)CC[C@]5(C)[C@H]4CC[C@]3(C)[C@H]1[C@@H]2C [SMILAGENIN],207.7 Å²,–
CC(C)=CCC/C(C)=C/CC/C(C)=C/CC/C(C)=C/CC/C(C)=C/CC/C(C)=C/CC/C(C)=C/CC/C(C)=C/CC/C(C)=C/CO [SOLANESOL],–,collision cross section (N2) ([2]; [M+H-H2O]+): 256.8 Å²
C[N+]12CC[C@@]34c5ccccc5N5C(=O)CC6OCC=C(C1)[C@H](CC32)[C@@H]6C54 (stereo partly specified) [STRYCHNINE METHIODIDE],–,collision cross section (N2) ([2]; [M]+): 175.2 Å²
O=C1C[C@@H]2OCC=C3CN4CC[C@]56c7ccccc7N1[C@H]5[C@H]2[C@H]3C[C@H]46 [STRYCHNINE],172.2 Å²,–
CC(=O)Nc1ccc(S(=O)(=O)Nc2ccc([N+](=O)[O-])cc2)cc1 [SULFANITRAN],173.2 Å²,–
Nc1ccc(S(=O)(=O)Nc2ccnn2-c2ccccc2)cc1 [SULFAPHENAZOLE],170 Å²,–
CCCCCCCCNC(C)C(O)c1ccc(SC(C)C)cc1 (stereo unspecified) [SULOCTIDIL],197.3 Å²,–
COP(=S)(OC)Oc1ccc(Sc2ccc(OP(=S)(OC)OC)cc2)cc1 [TEMEFOS],203.3 Å² and 187.6 Å²,–
COc1cc([C@@H]2c3cc4c(cc3[C@@H](O[C@@H]3O[C@@H]5CO[C@@H](c6cccs6)O[C@H]5[C@H](O)[C@H]3O)[C@H]3COC(=O)[C@H]23)OCO4)cc(OC)c1O [TENIPOSIDE],–,collision cross section (N2) ([2]; [M+Na]+): 266.1 Å²
CC(C)=CCCC1(C)C=Cc2c(O)c3c(c(CC=C(C)C)c2O1)OC12C(CC4CC1C(C)(C)OC2(C/C=C(/C)C(=O)O)C4O)C3=O (stereo unspecified) [TETRAHYDROGAMBOGIC ACID],246.4 Å²,–
CS(=O)(=O)c1ccc([C@@H](O)[C@@H](CO)NC(=O)C(Cl)Cl)cc1 [THIAMPHENICOL],170.7 Å²,–
CN(C)C(=S)SSC(=S)N(C)C [THIRAM],148.4 Å²,–
CC[C@H]1OC(=O)C[C@@H](O)[C@H](C)[C@@H](O[C@@H]2O[C@H](C)[C@@H](O)[C@H](N(C)C)[C@H]2O)[C@@H](CCN2C[C@H](C)C[C@H](C)C2)C[C@@H](C)C(=O)/C=C/C(C)=C/[C@@H]1CO[C@@H]1O[C@H](C)[C@@H](O)[C@@H](OC)[C@H]1OC [TILMICOSIN],310.2 Å²,–
CC1(C)O[C@@H]2[C@@H](CO[C@@]3(COS(N)(=O)=O)OC(C)(C)O[C@@H]23)O1 [TOPIRAMATE],–,collision cross section (N2) ([2]; [M+Na]+): 170.1 Å²
C[C@]12C=CC(=O)C=C1CC[C@H]1[C@@H]3C[C@@H](O)[C@](O)(C(=O)CO)[C@@]3(C)C[C@H](O)[C@@]12F [TRIAMCINOLONE],186.8 Å²,–
COc1cc(C(=O)N2CCOCC2)cc(OC)c1OC [TRIMETOZINE],164.5 Å²,–
CC[C@H]1OC(=O)C[C@@H](O)[C@H](C)[C@@H](O[C@@H]2O[C@H](C)[C@@H](O[C@H]3C[C@@](C)(O)[C@@H](O)[C@H](C)O3)[C@H](N(C)C)[C@H]2O)[C@@H](CC=O)C[C@@H](C)C(=O)/C=C/C(C)=C/[C@@H]1CO[C@@H]1O[C@H](C)[C@@H](O)[C@@H](OC)[C@H]1OC [TYLOSIN],307.8 Å²,–
COc1ccc(C(CN(C)C)C2(O)CCCCC2)cc1 (stereo unspecified) [VENLAFAXINE],169.9 Å²,–
CC(=O)CC(c1ccccc1)c1c(O)c2ccccc2oc1=O (stereo unspecified) [WARFARIN],165.9 Å²,–
O=C(O)c1cc(=O)c2cccc(O)c2[nH]1 [XANTHURENIC ACID],137.7 Å²,–
O=C(O)[C@@H]1[C@H]2C[C@H]3c4[nH]c5ccccc5c4CCN3C[C@@H]2CC[C@@H]1O [YOHIMBIC ACID],181.7 Å²,–
CC(C)CC1C(=O)N2CCCC2C2(O)OC(NC(=O)C3C=C4c5cccc6[nH]cc(c56)CC4N(C)C3)(C(C)C)C(=O)N12 (stereo not drawn) [alpha-ERGOCRYPTINE],236.1 Å²,–

# Further lines, with some results ahead:
collision cross section (N2) ([2]; [M+H]+),Structure (SMILES),also measured
167 Å²,CN/C(=C\[N+](=O)[O-])NCCSCc1ccc(CN(C)C)o1 [RANITIDINE],–
220.7 Å²,Cc1nc2sccn2c(=O)c1CCN1CCC(=C(c2ccc(F)cc2)c2ccc(F)cc2)CC1 [RITANSERIN],–
136.9 Å²,Cn1c([N+](=O)[O-])cnc1COC(N)=O [RONIDAZOLE],–
162.5 Å²,CCCN(CCC)CCc1cccc2c1CC(=O)N2 [ROPINIROLE],–
169.2 Å²,O=C(/C=C/c1ccc(O)c(O)c1)O[C@H](Cc1ccc(O)c(O)c1)C(=O)O [ROSMARINIC ACID],–
135.2 Å²,Cc1ncc([N+](=O)[O-])n1CC(C)O (stereo unspecified) [SECNIDAZOLE],–
182.4 Å²,O=C(O)CCC(=O)Nc1ccc(S(=O)(=O)Nc2nccs2)cc1 [SUCCINYLSULFATHIAZOLE],–
150.9 Å²,Nc1ccc(S(=O)(=O)Nc2ncccn2)cc1 [SULFADIAZINE],–
166.2 Å²,COc1ncnc(NS(=O)(=O)c2ccc(N)cc2)c1OC [SULFADOXINE],–
159 Å²,COc1cnc(NS(=O)(=O)c2ccc(N)cc2)nc1 [SULFAMETER],–
137.7 Å²,c1ccc2[nH]c(-c3cscn3)nc2c1 [THIABENDAZOLE],–
155.9 Å²,Cc1ncc(C[n+]2csc(CCO)c2C)c(N)n1 [THIAMINE],–
155.6 Å²,Cc1c(Cl)cccc1Nc1ccccc1C(=O)O [TOLFENAMIC ACID],–
173.6 Å²,Cc1cccc(N(C)C(=S)Oc2ccc3ccccc3c2)c1 [TOLNAFTATE],–
169.5 Å²,CCN(Cc1ccncc1)C(=O)C(CO)c1ccccc1 (stereo unspecified) [TROPICAMIDE],–
159.4 Å²,COc1ccc(C(=O)CC(=O)O)c2c1C=CC(C)(C)O2 [URSINOIC ACID],–
131.1 Å²,Nc1nc(=O)c2[nH]c(=O)cnc2[nH]1 [XANTHOPTERIN],–
